Results on three molecules are retold here after paper PMC4111878, “Three New Humulane Sesquiterpenes from Cultures of the Fungus Antrodiella albocinnamomea” (Natural Products and Bioprospecting, 2014).

The term IC50 denotes the concentration at which inhibition is half-maximal.

One assay addresses T1, MEG2 (Homo sapiens, UniProt P43378).
T1 construct: 6xHis (N); made in house; host or cells: E. coli
T1 sequence (P43378 1-593): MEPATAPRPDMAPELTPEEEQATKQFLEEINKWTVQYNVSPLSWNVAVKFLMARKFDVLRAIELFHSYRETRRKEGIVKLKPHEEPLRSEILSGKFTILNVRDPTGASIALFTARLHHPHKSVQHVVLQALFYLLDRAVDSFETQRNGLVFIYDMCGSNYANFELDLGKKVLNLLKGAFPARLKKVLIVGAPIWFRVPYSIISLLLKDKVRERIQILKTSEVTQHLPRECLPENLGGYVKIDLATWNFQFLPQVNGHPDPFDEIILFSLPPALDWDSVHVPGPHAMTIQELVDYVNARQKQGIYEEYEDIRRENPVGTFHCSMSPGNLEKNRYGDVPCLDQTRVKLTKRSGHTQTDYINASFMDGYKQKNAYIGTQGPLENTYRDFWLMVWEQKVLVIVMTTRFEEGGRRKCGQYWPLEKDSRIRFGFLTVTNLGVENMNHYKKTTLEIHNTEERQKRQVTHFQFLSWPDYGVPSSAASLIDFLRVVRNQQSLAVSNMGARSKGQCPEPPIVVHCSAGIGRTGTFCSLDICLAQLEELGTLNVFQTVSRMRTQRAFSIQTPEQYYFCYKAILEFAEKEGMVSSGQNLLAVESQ
Nature of the assay: Enzyme inhibition assay against protein-tyrosine phosphatase MEG2 (pNPP hydrolysis). The class given is biochemical. Particulars: recombinant His-tagged enzyme, 10 ng per well, pNPP 2 mM, pH 6.0, room temperature, 15 min preincubation, triplicate; NA = no activity; read-out: inhibitory activity against protein-tyrosine phosphatase MEG2, IC50 (converted). Here is the method:
(§1) The enzymatic assay was carried out at room temperature in 96-well plates. After the assay buffer which contained 100 mM Hepes (pH 6.0), 5 mM DTT 0.015 % Brij-35 and PTPase (20 ng PTP1B, 10 ng MEG2per well) was incubated with tested compounds for 15 min, the reaction was initiated by addition of the substrate p-nitrophenol phosphate (pNPP, Sigma, P4744, St. Louis, USA) at a final concentration of 2 mM. The activity of PTPase-catalyzed hydrolysis of pNPP was determined by measuring the amount of p-nitrophenol and the absorbance at 405 nm was recorded as the amount of p-nitrophenol. The IC50 value was determined by the non-linear curve fitting of the percentage inhibition versus inhibitor concentration plot. […] Louis, USA) was used for the positive control. All the assays were carried out in triplicate and the average results were presented.

The target of the next assay is T2, PTP1Bc (Homo sapiens, UniProt P18031).
T2 sequence (P18031 1-298 limits assumed): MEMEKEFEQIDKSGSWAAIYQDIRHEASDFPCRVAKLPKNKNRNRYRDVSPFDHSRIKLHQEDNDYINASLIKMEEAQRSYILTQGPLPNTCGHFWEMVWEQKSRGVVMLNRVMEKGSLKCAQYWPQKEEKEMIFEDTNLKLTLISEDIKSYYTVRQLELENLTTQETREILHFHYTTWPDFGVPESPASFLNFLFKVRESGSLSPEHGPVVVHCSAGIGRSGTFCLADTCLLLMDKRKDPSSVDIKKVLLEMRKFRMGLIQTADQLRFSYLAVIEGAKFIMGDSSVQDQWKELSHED
Nature of the assay: Enzyme inhibition assay against protein-tyrosine phosphatase PTP1Bc (pNPP hydrolysis). Type of assay: biochemical. Particulars: recombinant His-tagged enzyme, 20 ng per well, pNPP 2 mM, pH 6.0, room temperature, 15 min preincubation, triplicate; NA = no activity; read-out: inhibitory activity against protein-tyrosine phosphatase PTP1Bc, IC50 (converted). How it is done:
as §1

Regarding `CC1=CC(O)C(C)(O)C(C)CCC2(C)OC2CC1` (stereo not shown) [Compound 1, 6,7-epoxy-10E-humulen-1,2-diol], the IC50 is 31.5 µM at MEG2 and 39.3 µM at PTP1Bc. `CC1(C)C=CC(O)C2(C)OC2CCC2(C)OC2C1` (stereo not drawn) [Compound 3, 6,7:10,11-diepoxy-3E-humulen-5β-ol]: the half-inhibitory concentration (IC50) on PTP1Bc was 59.8 µM.

`C[C@H]1[C@H](C)CC[C@]2(C(=O)O)CC[C@]3(C)C(=CC[C@@H]4[C@@]5(C)CC[C@H](O)C(C)(C)[C@@H]5CC[C@]43C)[C@H]12` [Ursolic acid, reference compound]: at MEG2, the concentration for half-maximal inhibition (IC50) is 1.75 µM.
